Results: ChEMBL document CHEMBL6087402, “Design, synthesis, and in vitro and in vivo biological evaluation of dihydroartemisinin derivatives as potent anti-cancer agents with ferroptosis-inducing and apoptosis-activating properties” (Eur J Med Chem, 2025)

Assays:
Format in all cases: functional, cell-based
[1] = test system: Bel-7402; test: Anti-proliferative activity against human Bel-7402 cells incubated for 72 hrs by MTT assay; details: Bel-7402, 72 h
[2] = test system: SW-620; test: Anti-proliferative activity against human SW620 cells incubated for 72 hrs by MTT assay; details: SW-620, 72 h
[3] = test system: HCT-116; test: Anti-proliferative activity against human HCT-116 cells incubated for 72 hrs by MTT assay; details: HCT-116, 72 h
[4] = test system: A549; test: Anti-proliferative activity against human A549 cells incubated for 72 hrs by MTT assay; details: A549, 72 h

Row | Structure (SMILES) | IC50 [1] [µM] | IC50 [2] [µM] | IC50 [3] [µM] | IC50 [4] [µM]
1 | COc1ccc(-n2cc(C(=O)OC3O[C@@H]4O[C@@]5(C)CC[C@@H]6[C@H](C)CC[C@@H]([C@H]3C)[C@@]46OO5)nn2)cc1OC (some centres undefined) | 8.62 | 9.61 | 3.39 | > 10
2 | COc1ccc(-c2noc(CCC(=O)OC3O[C@@H]4O[C@@]5(C)CC[C@@H]6[C@H](C)CC[C@@H]([C@H]3C)[C@@]46OO5)n2)cc1 (some centres undefined) | 4.96 | > 10 | 3.48 | > 10
3 | CCCCNC(=O)OC1O[C@@H]2O[C@@]3(C)CC[C@@H]4[C@H](C)CC[C@@H]([C@H]1C)[C@@]24OO3 (some centres undefined) | > 10 | > 10 | 3.51 | > 10
4 | C[C@@H]1CC[C@H]2[C@@H](C)C(OC(=O)c3ccc(Cn4cncn4)cc3)O[C@@H]3O[C@@]4(C)CC[C@H]1[C@]32OO4 (some centres undefined) | > 10 | 8.32 | 3.39 | 7.19
5 | C[C@@H]1CC[C@H]2[C@@H](C)C(OC(=O)CCc3nc(-c4ccccc4)no3)O[C@@H]3O[C@@]4(C)CC[C@H]1[C@]32OO4 (some centres undefined) | 3.99 | 7.9 | 4.35 | 9.1
6 | C[C@@H]1CC[C@H]2[C@@H](C)C(OC(=O)NC(=O)c3ccccc3)O[C@@H]3O[C@@]4(C)CC[C@H]1[C@]32OO4 (some centres undefined) | > 10 | > 10 | 5.48 | > 10
7 | C[C@@H]1CC[C@H]2[C@@H](C)C(OC(=O)c3cn(-c4ccc(F)cc4)nn3)O[C@@H]3O[C@@]4(C)CC[C@H]1[C@]32OO4 (some centres undefined) | > 10 | 9.51 | 3.38 | > 10
8 | C[C@@H]1CC[C@H]2[C@@H](C)C(OC(=O)c3cccc4ncccc34)O[C@@H]3O[C@@]4(C)CC[C@H]1[C@]32OO4 (some centres undefined) | > 10 | 3.01 | 3.73 | > 10
9 | C[C@@H]1CC[C@H]2[C@@H](C)C(OC(=O)c3cc4ccccc4cn3)O[C@@H]3O[C@@]4(C)CC[C@H]1[C@]32OO4 (some centres undefined) | > 10 | 4.81 | 5.51 | > 10
10 | C[C@@H]1CC[C@H]2[C@@H](C)C(OC(=O)CCC(=O)NCCc3c[nH]c4ccc(Cl)cc34)O[C@@H]3O[C@@]4(C)CC[C@H]1[C@]32OO4 (some centres undefined) | > 10 | 1.73 | 4.99 | 7.25
11 | C[C@@H]1CC[C@H]2[C@@H](C)C(OC(=O)CCC(=O)NCCc3c[nH]c4ccccc34)O[C@@H]3O[C@@]4(C)CC[C@H]1[C@]32OO4 (some centres undefined) | > 10 | 1.81 | 6.74 | > 10
12 | C[C@@H]1CC[C@H]2[C@@H](C)C(OC(=O)c3ccc(CN4CCCCC4)cc3)O[C@@H]3O[C@@]4(C)CC[C@H]1[C@]32OO4 (some centres undefined) | > 10 | 7.1 | 2.31 | > 10
13 | C[C@@H]1CC[C@H]2[C@@H](C)C(OC(=O)c3ccc(Cn4cccn4)cc3)O[C@@H]3O[C@@]4(C)CC[C@H]1[C@]32OO4 (some centres undefined) | > 10 | > 10 | 2.31 | 7.01
14 | C[C@@H]1CC[C@H]2[C@@H](C)C(OC(=O)CCc3nc(-c4ccc(Cl)c(Cl)c4)no3)O[C@@H]3O[C@@]4(C)CC[C@H]1[C@]32OO4 (some centres undefined) | > 10 | > 10 | 2.13 | 9.09
15 | C[C@@H]1CC[C@H]2[C@@H](C)C(OC(=O)c3ccc(Cn4ccc5ccc(F)cc54)cc3)O[C@@H]3O[C@@]4(C)CC[C@H]1[C@]32OO4 (some centres undefined) | > 10 | 4.36 | 0.47 | 0.89
16 | C[C@@H]1CC[C@H]2[C@@H](C)C(OC(=O)c3ccc4ncccc4c3)O[C@@H]3O[C@@]4(C)CC[C@H]1[C@]32OO4 (some centres undefined) | > 10 | 3.02 | 3.22 | > 10
